What was measured:
Type in all cases: in vivo
soybean = assay: Foliar application to soybean, field yield trials; settings: foliar at R2, AG2836, 7 US Midwest locations
tomatoes = assay: Foliar application to tomato, yield; settings: for change in fruit weight per plant vs no spray control: Roma, Bt.4Q7Flg22 16.7 μM at 4.0 Fl. oz/Ac, Gm.RHPP 100 μM at 3.2 Fl. oz/Ac
Method: Small scale plots were designed to simulate commercial growing conditions for tomatoes. Two hybrids of tomatoes, JetSetter (Trial 1) and Better Big Boy (Trial 2) were started as transplants in the greenhouse 42 to 56 days prior to planting in the raised field beds. Tomatoes were transplanted once soil temperatures three inches (7.6 cm) beneath the soil surface reach 60° F. (15.5° C.). Tomatoes were grown on raised beds covered with black plastic mulch. Plants were grown using drip irrigation and fertilizer applied following grower guidelines throughout the growing season to ensure optimum plant growth and yields. Small raised bed plots were designed to simulate the planting densities used by commercial growers that generally plant 2,600 to 5,800 plants per acre in single rows with 18 to 30 inches (46 to 76 cm) between plants in the row on 5- to 6.5-ft (1.5 to 2 m) centers.
Foliar treatments of Bt.4Q7 Flg22 and Ec. […] Replicated trials were conducted at the University of Missouri (Columbia, Mo.) in July. Control plants were treated with equal volumes (use rates) of water. Effects of the foliar treatments on increasing yield in tomatoes were determined and reported as normalized to the water control treatment.
In another experiment, tomato plants (hybrid: Better Boy), cultivated as described in the previous example, were treated with a formulation of Bt.4Q7 Flg22 at the first bloom stage. The formulation used consisted of the retro inverso D RI Bt.4Q7 Flg22 applied with 0.01% (v/v) non-ionic surfactant. […] At harvest, the yield was measured as the number of fruits per plant, the weight (grams) per fruit and the total yield (lbs/Ac). Table 29 reports the yield as a percent comparison or change to the non-treated control (water only) plants.
Foliar application treatments of Gm.RHPP (SEQ ID NO: 600) was applied as an exogenous spray at the pre-bloom stage and used to increase yield in tomatoes. Two tomato hybrids (JetSetter and Better Big Boy) were planted in small scale plots as described in Example 12. […] Replicated trials were conducted at the US Midwest (Missouri) in July. The foliar treatment of Gm.RHPP on tomato plants was compared to the control (water applied at same use rate). Effects of the foliar treatments on increasing yield in tomatoes were determined and reported as normalized to the water control treatment and reported as the average percentage change in yield over the average control yield in Table 41.
Small scale plots were designed to simulate commercial growing conditions for tomatoes. Tomato plants, variety Roma were started from transplants that were grown in a greenhouse for 45 days prior to planting into 2 raised field row beds with 2 feet (0.6 meters) between each transplant with an average of 30 plants per row bed. […] Tomatoes were grown on raised beds covered with black plastic mulch. Plants were grown using drip irrigation and fertilizer (80 lbs. or 36.3 kg) nitrogen; 100 lbs. (45.4 kg) phosphate, and 100 lbs. (45.4 kg) potash or potassium) applied following grower guidelines throughout the growing season to provide for optimum plant growth and yields. Small raised bed plots were designed to simulate the planting densities used by commercial growers that generally plant 2,600 to 5,800 plants per acre in single rows with 45.7 to 76.2 cm between plants in the row on 1.5- to 2-meter centers. [Orzolek et al., “Agricultural Alternatives: Tomato Production.” University Park: Penn State Extension, 2016].
Foliar treatments using Bt.4Q7Flg22 and Gm.RHPP were applied on the tomato plants directly at early bloom (first flower) stage.

Cercospora kikuchii = assay: Cercospora leaf blight severity, field trials in Paraguay; settings: two foliar applications from R1, 150 and 300 mL/Ha
Method: FOX is a commercially available foliar fungicide in South America with limited efficacy for preventative and curative treatment of Asian soybean rust caused by Phakopsora pachyrhizi and Cercospora leaf blight of soybean caused by Cercospora kikuchii applied as a foliar spray following the recommendations on the specimen label at a use rate of 5.48 fluid ounces per acre (Fl. oz/Ac) (400 mL/hectare). Beginning at the R1 stage of development, soybean plants received two foliar applications of the compositions described in Table 90 with an interval of 13-14 days between spray applications. […] Disease assessments for trials that were naturally infected were scored for the severity of infection (0-100% of foliage affected) were scored for 10 plants within each plot for both Asian soybean rust caused by Phakopsora pachyrhizi and Cercospora leaf blight of soybean caused by Cercospora kikuchii at the R4-R5 stage of soy development (4-15 days after second foliar application) with guidance from Godoy et al (1997; Journal of plant diseases and protection 104:336-345). Percent phytotoxicity (0-100% of foliage affected) was also scored at the R4-R5 stage of soy development. […] Standard deviation for each treatment between the three sites was calculated. […]

[1] = foliar 1 Fl. oz/Ac at early bloom, vs water control
[2] = 1 Fl. oz/Ac, first bloom, hybrid Better Boy, formulation with 0.01% non-ionic surfactant
[3] = 1 Fl. oz/Ac, foliar at early bloom
[4] = 20 Fl. oz/Ac, foliar at early bloom

Substance: GGIRAAPTGNER (Glycine max) [RHPP, Root Hair Promoting Peptide from Glycine max]
- Average Total Yield Bu/Ac Variety 1 (soybean; use rate 0.33 Fl. oz/Ac): 59.15 Bu/Ac
- increase in tomato yield over control (tomatoes; 1 Fl. oz/Ac, Better Big Boy): 10%
- increase in tomato yield over control (tomatoes; 1 Fl. oz/Ac, Jetsetter hybrid): 93%
- average increase in tomato yield over control, two hybrids (tomatoes; 1 Fl. oz/Ac, early bloom): 52%
- Percentage Change in Fruit Weight Compared to No-Spray Control (tomatoes; Roma tomato, foliar at early bloom, Bt.4Q7Flg22 16.7 μM 4.0 Fl. oz/Ac, Gm.RHPP 100 μM 3.2 Fl. oz/Ac): +1.99%
- Average Fruit Weight (grams) per Plant (tomatoes; Roma tomato, foliar at early bloom, Bt.4Q7Flg22 16.7 μM 4.0 Fl. oz/Ac, Gm.RHPP 100 μM 3.2 Fl. oz/Ac, 2 harvests): 1397.1 grams
- change in fruit weight per plant vs no spray control (tomatoes): ~2%
- Average Trials 1 & 2 Percent Change Yield over Avg. Control (tomatoes; foliar 1 Fl. oz/Ac at early bloom, both tomato hybrids): +52%
- Trial 1: Percent Change in Yield over Avg. Control; Hybrid: Jetsetter (tomatoes; [1]): +93%
- Trial 2: Percent Change in Yield over Avg. Control; Hybrid: Better Big Boy (tomatoes; [1]): +10%
- less Cercospora leaf area damage than untreated control (Cercospora kikuchii): 3.3-4.5%

Substance: Bt.4Q7Flg22: Flg22 polypeptide (22 amino acids) from flagellin of Bacillus thuringiensis strain 4Q7 (DRLSSGKRINSASDDAAGLAIA; listed as Bacillus thuringiensis)
- Average Total Yield Bu/Ac Variety 1 (soybean; use rate 0.33 Fl. oz/Ac): 60.33 Bu/Ac
- Average Total Yield Bu/Ac Variety 1 (soybean; use rate 4.0 Fl. oz/Ac): 57.61 Bu/Ac
- Average Total Yield Bu/Ac Variety 1 (soybean; use rate 8.0 Fl. oz/Ac): 59.05 Bu/Ac
- Percent Change in Number of Fruits per Plant Compared to Control (tomatoes; [2]): +12%
- Percent Change in Weight/Fruit Compared to Control (tomatoes; [2]): +9%
- Percent Change in Yield (lbs/Ac) Compared to Control (tomatoes; [2]): +21%
- Average Trials 1 & 2 Percent Change Yield over Avg. Control (tomatoes; [3]): +25%
- Trial 1: Percent Change in Yield over Avg. Control; Hybrid: Jetsetter (tomatoes; [3]): +49%
- Trial 2: Percent Change in Yield over Avg. Control; Hybrid: Better Big Boy (tomatoes; [3]): +1%
- Average Trials 1 & 2 Percent Change Yield over Avg. Control (tomatoes; [4]): +17%
- Trial 1: Percent Change in Yield over Avg. Control; Hybrid: Jetsetter (tomatoes; [4]): +22%
- Trial 2: Percent Change in Yield over Avg. Control; Hybrid: Better Big Boy (tomatoes; [4]): +12%
- change in fruit weight per plant vs no spray control (tomatoes): 8.61%
- increase in tomato yield over control, two hybrids averaged (tomatoes; early bloom, high rate 20 Fl. oz/Ac): 17%
- increase in tomato yield over control, two hybrids averaged (tomatoes; early bloom, low rate 1 Fl. oz/Ac): 25%
- less Cercospora leaf area damage than untreated control (Cercospora kikuchii): 2.8-3.5%

From patent publication US12268727B2, “Bioactive polypeptides for improvements in plant protection, growth and productivity” (priority 2017, dated 2025)
